Measurements published in ChEMBL document CHEMBL1201862, “PubChem BioAssay data set” (2004).
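Each compound was tested at five concentrations against cells in 96-well plates for 48 hours. Abbreviation: GI50, concentration required for 50% inhibition of growth.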 Activity calls are given as the source filed them. Rule as the data show it: active = GI50 up to about 1.1 µM and inactive = higher.

Tests used:
Test in all cases: NCI tumour cell line growth inhibition, 48 h
786-0 = system: 786-0
A498 = system: A498
A549 = system: A549
CCRF-CEM = system: CCRF-CEM
HOP-62 = system: HOP-62
HT-29 = system: HT-29
M14 = system: M14
MDA-MB-435 = system: MDA-MB-435
NCI-H23 = system: NCI-H23
OVCAR-5 = system: OVCAR-5
RPMI-8226 = system: RPMI-8226
RXF 393 = system: RXF 393
SF-268 = system: SF-268
SF-295 = system: SF-295
SK-MEL-28 = system: SK-MEL-28
SK-MEL-5 = system: SK-MEL-5
SW-620 = system: SW-620
T47D = system: T47D
U-251 = system: U-251
UACC-62 = system: UACC-62

Measured: GI50

O=[N+]([O-])C1=Cc2c(O)ccc(O)c2C2OC=CC12 (stereo not given)
inactive: 786-0 17.9 µM | A498 15.7 µM | A549 21 µM | CCRF-CEM 8.89 µM | HOP-62 18.3 µM | HT-29 19.6 µM | M14 18 µM | MDA-MB-435 2.4 µM | NCI-H23 15.5 µM | OVCAR-5 23.5 µM | RPMI-8226 34.1 µM | RXF 393 15.2 µM | SF-268 19.8 µM | SF-295 16.3 µM | SK-MEL-28 44.8 µM | SK-MEL-5 12.4 µM | SW-620 30 µM | T47D 17.4 µM | U-251 16.1 µM | UACC-62 6.81 µM

CSc1ccc(/C=C2\N=C(c3ccccc3)N(c3nc4c(Cl)cc(Cl)cc4s3)C2=O)cc1
inactive: 786-0 25.9 µM | A498 17 µM | A549 21.4 µM | CCRF-CEM 7.74 µM | HOP-62 18.1 µM | HT-29 19.8 µM | M14 25.7 µM | MDA-MB-435 16.6 µM | OVCAR-5 31.1 µM | RPMI-8226 22.5 µM | RXF 393 41 µM | SF-268 28.2 µM | SF-295 24.3 µM | SK-MEL-28 31.1 µM | SK-MEL-5 16.2 µM | SW-620 29.4 µM | T47D 38.5 µM | U-251 17.1 µM | UACC-62 24.4 µM

CN(O)C(=O)/C=C/c1ccc(OCc2cccc(Cl)c2)cc1
inactive: 786-0 18.7 µM | A498 17 µM | A549 21.2 µM | CCRF-CEM 8.26 µM | HOP-62 24.4 µM | HT-29 18 µM | M14 28 µM | MDA-MB-435 32.2 µM | NCI-H23 16.3 µM | OVCAR-5 39.7 µM | RPMI-8226 27.5 µM | RXF 393 30.7 µM | SF-268 23.9 µM | SF-295 22.8 µM | SK-MEL-28 38.5 µM | SK-MEL-5 24.2 µM | SW-620 26.9 µM | T47D 20.1 µM | U-251 22 µM | UACC-62 15 µM

c1ncc(C23C4C5C6C4C2C6C53)[nH]1 (stereo not given)
inactive: 786-0 > 100 µM | A498 > 100 µM | A549 > 100 µM | CCRF-CEM > 100 µM | HOP-62 > 100 µM | HT-29 > 100 µM | M14 > 100 µM | MDA-MB-435 > 100 µM | NCI-H23 > 100 µM | OVCAR-5 > 100 µM | RPMI-8226 > 100 µM | RXF 393 > 100 µM | SF-268 > 100 µM | SF-295 > 100 µM | SK-MEL-28 > 100 µM | SK-MEL-5 > 100 µM | SW-620 > 100 µM | T47D > 100 µM | U-251 > 100 µM | UACC-62 > 100 µM

Cn1cc(S(=O)(=O)NC(=O)Nc2ccc(Cl)cc2)c(=O)c2ccc(F)cc21
inactive: 786-0 > 100 µM | A498 > 100 µM | A549 > 100 µM | CCRF-CEM > 100 µM | HOP-62 > 100 µM | HT-29 > 100 µM | MDA-MB-435 > 100 µM | NCI-H23 > 100 µM | OVCAR-5 > 100 µM | RPMI-8226 > 100 µM | RXF 393 > 100 µM | SF-268 > 100 µM | SF-295 > 100 µM | SK-MEL-28 > 100 µM | SK-MEL-5 > 100 µM | SW-620 > 100 µM | T47D > 100 µM | U-251 > 100 µM | UACC-62 3.01 µM

CSC(=S)CC(O)[C@@H]1CC2c3ccccc3C1c1ccccc12 (stereo not given in full)
inactive: 786-0 18 µM | A498 20.7 µM | A549 17.1 µM | CCRF-CEM 1.95 µM | HOP-62 15.7 µM | HT-29 4.33 µM | M14 12.7 µM | MDA-MB-435 11.3 µM | NCI-H23 7.11 µM | OVCAR-5 16.7 µM | RPMI-8226 3.11 µM | RXF 393 2.19 µM | SF-268 15.4 µM | SF-295 16.6 µM | SK-MEL-28 21.7 µM | SK-MEL-5 13.4 µM | SW-620 4.81 µM | T47D 5.5 µM | U-251 3.55 µM | UACC-62 12.1 µM

CC(C)(C)OC(=O)C(C1NC(C(=O)O)C(C)(C)S1)N1C(=O)c2ccccc2C1=O (stereo not given)
inactive: 786-0 > 100 µM | A498 > 100 µM | A549 > 100 µM | CCRF-CEM > 100 µM | HOP-62 > 100 µM | HT-29 > 100 µM | M14 > 100 µM | MDA-MB-435 > 100 µM | NCI-H23 > 100 µM | OVCAR-5 > 100 µM | RPMI-8226 > 100 µM | RXF 393 > 100 µM | SF-268 > 100 µM | SF-295 > 100 µM | SK-MEL-28 > 100 µM | SK-MEL-5 > 100 µM | SW-620 > 100 µM | T47D > 100 µM | U-251 > 100 µM | UACC-62 > 100 µM

CCOc1ccccc1NC(=O)C(=O)C(/C(=N/N)C(=O)OC)c1nc2ccc([N+](=O)[O-])cc2nc1O (stereo not given)
inactive: 786-0 > 100 µM | A498 > 100 µM | A549 > 100 µM | CCRF-CEM > 100 µM | HOP-62 > 100 µM | HT-29 > 100 µM | M14 > 100 µM | MDA-MB-435 > 100 µM | OVCAR-5 > 100 µM | RPMI-8226 > 100 µM | RXF 393 > 100 µM | SF-268 > 100 µM | SF-295 > 100 µM | SK-MEL-28 > 100 µM | SK-MEL-5 > 100 µM | SW-620 > 100 µM | T47D > 100 µM | U-251 > 100 µM | UACC-62 > 100 µM

OC[C@@H](O)[C@H](O)[C@@H](O)/C=N/Nc1ccc(Cl)nn1
inactive: 786-0 > 100 µM | A498 > 100 µM | A549 > 100 µM | CCRF-CEM > 100 µM | HOP-62 > 100 µM | HT-29 > 100 µM | M14 > 100 µM | MDA-MB-435 > 100 µM | NCI-H23 > 100 µM | OVCAR-5 > 100 µM | RPMI-8226 > 100 µM | RXF 393 > 100 µM | SF-268 > 100 µM | SF-295 > 100 µM | SK-MEL-28 > 100 µM | SK-MEL-5 > 100 µM | SW-620 > 100 µM | T47D > 100 µM | U-251 > 100 µM | UACC-62 > 100 µM

c1ccc(-c2cc(-c3cccs3)c(-c3cccs3)s2)cc1
inactive: 786-0 50 µM | A498 80.2 µM | CCRF-CEM 23.7 µM | HOP-62 > 100 µM | HT-29 55.7 µM | M14 18.9 µM | MDA-MB-435 27.1 µM | NCI-H23 19.1 µM | OVCAR-5 > 100 µM | RPMI-8226 31.8 µM | RXF 393 16.6 µM | SF-268 > 100 µM | SF-295 80 µM | SK-MEL-5 33.7 µM | SW-620 33.7 µM | T47D 4.5 µM | U-251 78.7 µM | UACC-62 > 100 µM
